Measurements: ChEMBL document CHEMBL4477252, “Optimization of microtubule affinity regulating kinase (MARK) inhibitors with improved physical properties” (Bioorg Med Chem Lett, 2016)

Molecular target: Dual specificity mitogen-activated protein kinase kinase 1 (Homo sapiens, UniProt Q02750)
Test: Inhibition of full-length recombinant human His-tagged MAP2K1 expressed in baculovirus expression system by LanthaScreen assay
Conditions: not given

Compared with `Cn1cc(-c2cnc3c(-c4csc(C(=O)NCC(F)(F)F)c4)cnn3c2)cn1`, `Cc1sc(C(=O)N[C@@H]2[C@H](N)CCCC2(F)F)cc1-c1cnn2cc(Cl)cnc12` is 11-fold lower in IC50: 12000 nM for the first, 1100 nM for the second.

Molecular target: Mitogen-activated protein kinase 14 (Homo sapiens, UniProt Q16539)
Sequence (Q16539 whole entry): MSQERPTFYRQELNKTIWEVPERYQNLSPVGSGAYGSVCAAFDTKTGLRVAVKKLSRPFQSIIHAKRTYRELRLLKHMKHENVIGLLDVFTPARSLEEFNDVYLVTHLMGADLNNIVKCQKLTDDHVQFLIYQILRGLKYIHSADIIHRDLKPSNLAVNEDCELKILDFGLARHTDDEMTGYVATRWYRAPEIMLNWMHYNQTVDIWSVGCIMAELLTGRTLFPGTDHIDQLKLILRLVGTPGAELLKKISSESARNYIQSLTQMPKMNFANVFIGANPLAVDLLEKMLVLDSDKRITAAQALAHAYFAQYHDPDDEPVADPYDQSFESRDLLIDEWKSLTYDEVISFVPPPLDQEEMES
Test: Inhibition of full-length recombinant human GST-tagged MAPK14 alpha expressed in Escherichia coli by Z'-LYTE assay
Conditions: not given

Compared with `Cn1cc(-c2cnc3c(-c4csc(C(=O)NCC(F)(F)F)c4)cnn3c2)cn1`, `Cc1sc(C(=O)N[C@@H]2[C@H](N)CCCC2(F)F)cc1-c1cnn2cc(Cl)cnc12` is higher in IC50: 36000 nM for the first, greater than 100000 nM for the second.

Molecular target: Glycogen synthase kinase-3 beta (Homo sapiens, UniProt P49841)
Sequence (P49841 whole entry): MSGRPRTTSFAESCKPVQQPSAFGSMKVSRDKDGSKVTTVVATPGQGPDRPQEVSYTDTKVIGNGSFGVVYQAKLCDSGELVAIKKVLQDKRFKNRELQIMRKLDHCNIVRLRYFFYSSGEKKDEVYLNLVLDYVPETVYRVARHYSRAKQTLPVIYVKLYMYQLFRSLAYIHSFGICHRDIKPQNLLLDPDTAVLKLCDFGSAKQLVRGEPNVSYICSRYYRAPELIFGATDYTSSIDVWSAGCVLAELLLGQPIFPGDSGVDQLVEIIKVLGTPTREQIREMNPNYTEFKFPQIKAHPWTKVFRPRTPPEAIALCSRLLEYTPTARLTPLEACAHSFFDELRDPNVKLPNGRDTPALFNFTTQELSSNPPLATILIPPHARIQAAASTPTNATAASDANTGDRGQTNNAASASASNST
Test: Inhibition of full-length recombinant human His-tagged GSK3B expressed in baculovirus expression system by Z'-LYTE assay
Conditions: not given

First: Cn1cc(-c2cnc3c(-c4csc(C(=O)NCC(F)(F)F)c4)cnn3c2)cn1
Second: Cc1sc(C(=O)N[C@@H]2[C@H](N)CCCC2(F)F)cc1-c1cnn2cc(Cl)cnc12
The IC50 of the first is 1.8-fold lower: 84 nM for the first, 150 nM for the second.

Molecular target: Tyrosine-protein kinase BTK (Homo sapiens, UniProt Q06187)
Sequence (Q06187 whole entry): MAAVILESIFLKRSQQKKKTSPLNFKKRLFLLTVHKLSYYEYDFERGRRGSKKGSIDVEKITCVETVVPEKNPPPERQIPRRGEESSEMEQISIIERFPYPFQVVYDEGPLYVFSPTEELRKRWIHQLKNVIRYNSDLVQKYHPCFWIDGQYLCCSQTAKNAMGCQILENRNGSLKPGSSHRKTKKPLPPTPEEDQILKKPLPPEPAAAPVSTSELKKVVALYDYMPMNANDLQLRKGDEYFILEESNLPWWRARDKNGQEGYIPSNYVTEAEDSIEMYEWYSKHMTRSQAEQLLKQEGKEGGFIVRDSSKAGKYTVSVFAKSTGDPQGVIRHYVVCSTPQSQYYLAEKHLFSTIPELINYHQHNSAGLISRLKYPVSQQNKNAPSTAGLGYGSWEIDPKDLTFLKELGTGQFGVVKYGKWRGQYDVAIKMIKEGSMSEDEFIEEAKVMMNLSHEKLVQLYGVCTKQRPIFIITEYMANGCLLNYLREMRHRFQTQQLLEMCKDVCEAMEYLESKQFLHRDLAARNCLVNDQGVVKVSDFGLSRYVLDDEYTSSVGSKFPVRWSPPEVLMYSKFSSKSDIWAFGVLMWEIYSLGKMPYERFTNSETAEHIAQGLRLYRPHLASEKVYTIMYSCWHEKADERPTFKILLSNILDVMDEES
Test: Inhibition of full-length recombinant human His-tagged BTK expressed in baculovirus expression system by Z'-LYTE assay
Conditions: not given

Compared with `Cn1cc(-c2cnc3c(-c4csc(C(=O)NCC(F)(F)F)c4)cnn3c2)cn1`, `Cc1sc(C(=O)N[C@@H]2[C@H](N)CCCC2(F)F)cc1-c1cnn2cc(Cl)cnc12` is 36-fold higher in IC50: 360 nM for the first, 13000 nM for the second.

Test system: not listed separately
Test: Volume of distribution in Sprague-Dawley rat at 1 mL/kg, iv administered through catheter or 5 mL/kg administered through gastric gavage measured after 24 hrs by LC-MS/MS analysis
Format: ADME, organism-based
Conditions: in vivo

First: Cn1cc(-c2cnc3c(-c4csc(C(=O)NCC(F)(F)F)c4)cnn3c2)cn1
Second: Cc1sc(C(=O)N[C@@H]2[C@H](N)CCCC2(F)F)cc1-c1cnn2cc(Cl)cnc12
The Vd of the first is 1.7-fold lower: 0.77 L/kg for the first, 1.3 L/kg for the second.

Molecular target: RAC-alpha serine/threonine-protein kinase (Homo sapiens, UniProt P31749)
Sequence (P31749 whole entry): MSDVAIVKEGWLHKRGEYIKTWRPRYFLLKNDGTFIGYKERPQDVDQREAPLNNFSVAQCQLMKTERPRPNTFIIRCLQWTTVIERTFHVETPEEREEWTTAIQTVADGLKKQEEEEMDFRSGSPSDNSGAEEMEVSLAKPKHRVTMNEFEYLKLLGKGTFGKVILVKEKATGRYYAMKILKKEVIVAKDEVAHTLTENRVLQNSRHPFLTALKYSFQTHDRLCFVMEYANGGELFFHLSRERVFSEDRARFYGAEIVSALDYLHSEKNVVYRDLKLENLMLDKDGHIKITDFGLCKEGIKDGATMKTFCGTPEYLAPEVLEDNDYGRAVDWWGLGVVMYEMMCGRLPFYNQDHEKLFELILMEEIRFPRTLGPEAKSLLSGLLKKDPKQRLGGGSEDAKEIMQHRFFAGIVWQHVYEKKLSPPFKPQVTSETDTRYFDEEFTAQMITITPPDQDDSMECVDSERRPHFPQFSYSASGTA
Test: Inhibition of full-length recombinant human His-tagged AKT1-alpha expressed in baculovirus expression system by Z'-LYTE assay
Conditions: not given

Compared with `Cn1cc(-c2cnc3c(-c4csc(C(=O)NCC(F)(F)F)c4)cnn3c2)cn1`, `Cc1sc(C(=O)N[C@@H]2[C@H](N)CCCC2(F)F)cc1-c1cnn2cc(Cl)cnc12` is lower in IC50: greater than 100000 nM for the first, 870 nM for the second.

Molecular target: Cyclin-dependent kinase 2 (Homo sapiens, UniProt P24941)
Test: Inhibition of full-length recombinant human His-tagged CDK2 expressed in baculovirus expression system by Z'-LYTE assay
Conditions: not given

First: Cn1cc(-c2cnc3c(-c4csc(C(=O)NCC(F)(F)F)c4)cnn3c2)cn1
Second: Cc1sc(C(=O)N[C@@H]2[C@H](N)CCCC2(F)F)cc1-c1cnn2cc(Cl)cnc12
The IC50 of the first is lower: less than 10 nM for the first, 51 nM for the second.

Molecular target: G protein-coupled receptor kinase 6 (Homo sapiens, UniProt P43250)
Test: Inhibition of full-length recombinant human GST-tagged GRK6 expressed in baculovirus expression system by Z'-LYTE assay
Conditions: not given

Going from `Cn1cc(-c2cnc3c(-c4csc(C(=O)NCC(F)(F)F)c4)cnn3c2)cn1` to `Cc1sc(C(=O)N[C@@H]2[C@H](N)CCCC2(F)F)cc1-c1cnn2cc(Cl)cnc12`, the IC50 falls from greater than 100000 nM to 1700 nM.

Molecular target: T1, Mitogen-activated protein kinase 13 (Homo sapiens, UniProt O15264)
T1 sequence (O15264 whole entry): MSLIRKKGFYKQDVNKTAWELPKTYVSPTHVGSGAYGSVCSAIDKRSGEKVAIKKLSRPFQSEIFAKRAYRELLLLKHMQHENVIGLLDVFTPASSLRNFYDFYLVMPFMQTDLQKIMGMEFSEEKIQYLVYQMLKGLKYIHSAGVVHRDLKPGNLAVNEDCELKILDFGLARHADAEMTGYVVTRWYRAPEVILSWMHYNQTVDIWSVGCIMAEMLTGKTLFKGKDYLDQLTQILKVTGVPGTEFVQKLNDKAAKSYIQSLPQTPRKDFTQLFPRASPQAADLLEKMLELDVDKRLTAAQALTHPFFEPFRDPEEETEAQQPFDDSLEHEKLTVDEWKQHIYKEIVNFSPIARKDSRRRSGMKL
Test: Inhibition of full-length recombinant human His-tagged MAPK13 expressed in baculovirus expression system by Z'-LYTE assay
Conditions: not given

Compared with `Cn1cc(-c2cnc3c(-c4csc(C(=O)NCC(F)(F)F)c4)cnn3c2)cn1`, `Cc1sc(C(=O)N[C@@H]2[C@H](N)CCCC2(F)F)cc1-c1cnn2cc(Cl)cnc12` is 14-fold lower in IC50: 2200 nM for the first, 160 nM for the second.

Molecular target: T2, Receptor-type tyrosine-protein kinase FLT3 (Homo sapiens, UniProt P36888)
T2 sequence (P36888 whole entry): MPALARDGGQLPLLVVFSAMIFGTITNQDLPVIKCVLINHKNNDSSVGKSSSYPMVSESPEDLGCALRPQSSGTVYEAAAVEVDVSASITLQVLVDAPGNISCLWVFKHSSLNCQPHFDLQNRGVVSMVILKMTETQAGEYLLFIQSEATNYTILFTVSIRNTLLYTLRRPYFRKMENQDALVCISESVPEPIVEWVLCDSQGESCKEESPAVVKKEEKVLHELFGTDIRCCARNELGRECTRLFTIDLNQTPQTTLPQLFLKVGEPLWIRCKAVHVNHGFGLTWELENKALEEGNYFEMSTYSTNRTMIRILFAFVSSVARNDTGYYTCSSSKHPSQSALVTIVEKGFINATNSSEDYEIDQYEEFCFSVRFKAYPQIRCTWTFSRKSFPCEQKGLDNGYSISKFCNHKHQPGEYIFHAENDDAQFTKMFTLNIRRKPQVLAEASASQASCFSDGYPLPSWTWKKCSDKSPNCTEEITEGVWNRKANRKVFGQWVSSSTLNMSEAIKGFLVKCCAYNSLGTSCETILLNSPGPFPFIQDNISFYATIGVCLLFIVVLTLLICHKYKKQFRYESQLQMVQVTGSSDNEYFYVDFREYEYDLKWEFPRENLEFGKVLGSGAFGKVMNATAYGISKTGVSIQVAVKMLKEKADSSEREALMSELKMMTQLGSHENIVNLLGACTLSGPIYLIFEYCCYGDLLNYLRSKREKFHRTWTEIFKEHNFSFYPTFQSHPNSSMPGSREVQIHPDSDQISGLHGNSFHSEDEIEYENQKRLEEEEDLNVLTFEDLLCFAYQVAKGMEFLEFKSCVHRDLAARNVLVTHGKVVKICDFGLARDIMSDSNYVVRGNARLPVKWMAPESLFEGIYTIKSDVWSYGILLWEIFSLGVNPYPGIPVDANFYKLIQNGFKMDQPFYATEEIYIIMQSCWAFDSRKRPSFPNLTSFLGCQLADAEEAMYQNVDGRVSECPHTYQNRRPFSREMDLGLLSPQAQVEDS
Test: Inhibition of recombinant human His-tagged cytoplasmic FLT3 expressed in baculovirus expression system by Z'-LYTE assay
Conditions: not given

Going from `Cn1cc(-c2cnc3c(-c4csc(C(=O)NCC(F)(F)F)c4)cnn3c2)cn1` to `Cc1sc(C(=O)N[C@@H]2[C@H](N)CCCC2(F)F)cc1-c1cnn2cc(Cl)cnc12`, the IC50 rises from less than 10 nM to 580 nM.

Molecular target: Leucine-rich repeat serine/threonine-protein kinase 2 (Homo sapiens, UniProt Q5S007)
Test: Inhibition of recombinant human GST-tagged LRRK2 catalytic domain expressed in baculovirus expression system by Adapta assay
Conditions: not given

Compared with `Cn1cc(-c2cnc3c(-c4csc(C(=O)NCC(F)(F)F)c4)cnn3c2)cn1`, `Cc1sc(C(=O)N[C@@H]2[C@H](N)CCCC2(F)F)cc1-c1cnn2cc(Cl)cnc12` is higher in IC50: less than 10 nM for the first, 62 nM for the second.

Molecular target: Rho-associated protein kinase 1 (Homo sapiens, UniProt Q13464)
Sequence (Q13464 whole entry, the tested form may be a part): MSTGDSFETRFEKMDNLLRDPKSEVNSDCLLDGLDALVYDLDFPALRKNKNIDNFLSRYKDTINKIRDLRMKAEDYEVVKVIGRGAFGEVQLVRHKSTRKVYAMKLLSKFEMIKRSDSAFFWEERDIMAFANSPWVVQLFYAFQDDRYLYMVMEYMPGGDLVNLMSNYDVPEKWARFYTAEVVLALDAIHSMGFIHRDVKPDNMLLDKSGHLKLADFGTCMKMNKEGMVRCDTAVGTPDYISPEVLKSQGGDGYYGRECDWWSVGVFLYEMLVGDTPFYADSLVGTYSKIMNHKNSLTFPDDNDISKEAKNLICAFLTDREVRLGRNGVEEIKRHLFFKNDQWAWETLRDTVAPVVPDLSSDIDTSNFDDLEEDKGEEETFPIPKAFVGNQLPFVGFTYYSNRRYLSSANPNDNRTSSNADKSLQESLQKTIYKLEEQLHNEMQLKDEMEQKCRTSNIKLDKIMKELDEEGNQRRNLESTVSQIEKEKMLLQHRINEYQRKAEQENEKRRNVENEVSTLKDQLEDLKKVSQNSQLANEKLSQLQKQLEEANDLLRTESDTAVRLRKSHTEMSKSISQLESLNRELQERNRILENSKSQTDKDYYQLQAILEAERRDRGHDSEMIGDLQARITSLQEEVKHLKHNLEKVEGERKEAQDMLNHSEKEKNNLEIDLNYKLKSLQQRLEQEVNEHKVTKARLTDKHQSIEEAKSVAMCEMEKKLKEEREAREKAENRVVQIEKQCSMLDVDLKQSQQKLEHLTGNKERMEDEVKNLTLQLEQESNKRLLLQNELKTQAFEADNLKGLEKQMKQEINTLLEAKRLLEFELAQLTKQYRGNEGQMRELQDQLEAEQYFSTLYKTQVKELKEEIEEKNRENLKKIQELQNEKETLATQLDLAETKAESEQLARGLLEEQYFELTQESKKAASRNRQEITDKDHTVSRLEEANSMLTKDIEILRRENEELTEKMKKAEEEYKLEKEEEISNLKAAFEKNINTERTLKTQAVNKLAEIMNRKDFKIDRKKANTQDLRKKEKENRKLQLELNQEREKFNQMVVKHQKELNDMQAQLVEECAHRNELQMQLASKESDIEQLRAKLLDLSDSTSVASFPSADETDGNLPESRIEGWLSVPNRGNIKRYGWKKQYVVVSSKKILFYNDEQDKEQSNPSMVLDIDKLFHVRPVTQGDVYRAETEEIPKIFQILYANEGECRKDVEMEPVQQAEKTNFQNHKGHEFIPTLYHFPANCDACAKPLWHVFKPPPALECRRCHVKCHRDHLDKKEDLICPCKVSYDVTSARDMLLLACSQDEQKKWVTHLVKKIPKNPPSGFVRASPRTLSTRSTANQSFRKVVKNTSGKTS
Test: Inhibition of recombinant human GST-tagged ROCK1 catalytic domain expressed in baculovirus expression system by Z'-LYTE assay
Conditions: not given

Going from `Cn1cc(-c2cnc3c(-c4csc(C(=O)NCC(F)(F)F)c4)cnn3c2)cn1` to `Cc1sc(C(=O)N[C@@H]2[C@H](N)CCCC2(F)F)cc1-c1cnn2cc(Cl)cnc12`, the IC50 rises from 780 nM to 2300 nM (2.9-fold).

Molecular target: Tyrosine-protein kinase JAK1 (Homo sapiens, UniProt P23458)
Test: Inhibition of recombinant human GST-tagged cytoplasmic JAK1 (866 to 1154 residues) catalytic domain expressed in baculovirus expression system by Z'-LYTE assay
Conditions: not given

`Cn1cc(-c2cnc3c(-c4csc(C(=O)NCC(F)(F)F)c4)cnn3c2)cn1` and `Cc1sc(C(=O)N[C@@H]2[C@H](N)CCCC2(F)F)cc1-c1cnn2cc(Cl)cnc12` are within 1.5-fold of each other in IC50: 4200 nM for the first, 4300 nM for the second.

Molecular target: Serine/threonine-protein kinase 26 (Homo sapiens, UniProt Q9P289)
Sequence (Q9P289 whole entry): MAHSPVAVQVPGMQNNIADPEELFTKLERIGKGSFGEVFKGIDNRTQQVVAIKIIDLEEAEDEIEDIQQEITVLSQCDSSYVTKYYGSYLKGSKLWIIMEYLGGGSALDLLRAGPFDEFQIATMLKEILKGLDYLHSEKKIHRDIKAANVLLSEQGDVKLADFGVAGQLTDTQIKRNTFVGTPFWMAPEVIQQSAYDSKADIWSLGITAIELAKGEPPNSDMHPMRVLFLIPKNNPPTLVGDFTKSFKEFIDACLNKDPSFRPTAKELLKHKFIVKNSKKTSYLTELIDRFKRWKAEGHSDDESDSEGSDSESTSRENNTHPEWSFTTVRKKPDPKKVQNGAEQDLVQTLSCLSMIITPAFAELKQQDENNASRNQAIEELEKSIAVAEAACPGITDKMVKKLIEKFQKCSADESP
Test: Inhibition of full-length recombinant human GST-tagged MST4 expressed in baculovirus expression system by Z'-LYTE assay
Conditions: not given

Going from `Cn1cc(-c2cnc3c(-c4csc(C(=O)NCC(F)(F)F)c4)cnn3c2)cn1` to `Cc1sc(C(=O)N[C@@H]2[C@H](N)CCCC2(F)F)cc1-c1cnn2cc(Cl)cnc12`, the IC50 falls from 290 nM to 170 nM (1.7-fold). The second is the more potent here.

Molecular target: RAC-beta serine/threonine-protein kinase (Homo sapiens, UniProt P31751)
Sequence (P31751 whole entry): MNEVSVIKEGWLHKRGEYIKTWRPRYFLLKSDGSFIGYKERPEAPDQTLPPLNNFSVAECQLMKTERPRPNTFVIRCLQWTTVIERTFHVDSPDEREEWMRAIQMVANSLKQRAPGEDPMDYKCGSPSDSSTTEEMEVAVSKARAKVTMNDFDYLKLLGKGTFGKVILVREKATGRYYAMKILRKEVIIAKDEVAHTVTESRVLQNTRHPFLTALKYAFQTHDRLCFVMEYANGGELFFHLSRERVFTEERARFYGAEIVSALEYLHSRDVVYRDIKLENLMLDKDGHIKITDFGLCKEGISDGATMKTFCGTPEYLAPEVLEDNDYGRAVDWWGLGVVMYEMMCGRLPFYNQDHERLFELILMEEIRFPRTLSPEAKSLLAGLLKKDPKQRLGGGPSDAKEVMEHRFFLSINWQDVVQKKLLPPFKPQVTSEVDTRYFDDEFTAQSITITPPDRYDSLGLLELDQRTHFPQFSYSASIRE
Test: Inhibition of full-length recombinant human His-tagged AKT2 expressed in baculovirus expression system by Z'-LYTE assay
Conditions: not given

Compared with `Cn1cc(-c2cnc3c(-c4csc(C(=O)NCC(F)(F)F)c4)cnn3c2)cn1`, `Cc1sc(C(=O)N[C@@H]2[C@H](N)CCCC2(F)F)cc1-c1cnn2cc(Cl)cnc12` is lower in IC50: greater than 100000 nM for the first, 2500 nM for the second. The second is the more potent here.

Molecular target: Mast/stem cell growth factor receptor Kit (Homo sapiens, UniProt P10721)
Test: Inhibition of recombinant human His-tagged cytoplasmic KIT expressed in baculovirus expression system by Z'-LYTE assay
Conditions: not given

Compared with `Cn1cc(-c2cnc3c(-c4csc(C(=O)NCC(F)(F)F)c4)cnn3c2)cn1`, `Cc1sc(C(=O)N[C@@H]2[C@H](N)CCCC2(F)F)cc1-c1cnn2cc(Cl)cnc12` is higher in IC50: 810 nM for the first, greater than 100000 nM for the second.

Molecular target: Insulin receptor (Homo sapiens, UniProt P06213)
Test: Inhibition of recombinant human GST-tagged cytoplasmic INSR (1011 to 1382 residues) expressed in baculovirus expression system by Z'-LYTE assay
Conditions: not given

`Cn1cc(-c2cnc3c(-c4csc(C(=O)NCC(F)(F)F)c4)cnn3c2)cn1` and `Cc1sc(C(=O)N[C@@H]2[C@H](N)CCCC2(F)F)cc1-c1cnn2cc(Cl)cnc12` cannot be ordered by IC50: greater than 100000 nM for the first, greater than 100000 nM for the second.

Molecular target: Fibroblast growth factor receptor 2 (Homo sapiens, UniProt P21802)
Sequence (P21802 whole entry): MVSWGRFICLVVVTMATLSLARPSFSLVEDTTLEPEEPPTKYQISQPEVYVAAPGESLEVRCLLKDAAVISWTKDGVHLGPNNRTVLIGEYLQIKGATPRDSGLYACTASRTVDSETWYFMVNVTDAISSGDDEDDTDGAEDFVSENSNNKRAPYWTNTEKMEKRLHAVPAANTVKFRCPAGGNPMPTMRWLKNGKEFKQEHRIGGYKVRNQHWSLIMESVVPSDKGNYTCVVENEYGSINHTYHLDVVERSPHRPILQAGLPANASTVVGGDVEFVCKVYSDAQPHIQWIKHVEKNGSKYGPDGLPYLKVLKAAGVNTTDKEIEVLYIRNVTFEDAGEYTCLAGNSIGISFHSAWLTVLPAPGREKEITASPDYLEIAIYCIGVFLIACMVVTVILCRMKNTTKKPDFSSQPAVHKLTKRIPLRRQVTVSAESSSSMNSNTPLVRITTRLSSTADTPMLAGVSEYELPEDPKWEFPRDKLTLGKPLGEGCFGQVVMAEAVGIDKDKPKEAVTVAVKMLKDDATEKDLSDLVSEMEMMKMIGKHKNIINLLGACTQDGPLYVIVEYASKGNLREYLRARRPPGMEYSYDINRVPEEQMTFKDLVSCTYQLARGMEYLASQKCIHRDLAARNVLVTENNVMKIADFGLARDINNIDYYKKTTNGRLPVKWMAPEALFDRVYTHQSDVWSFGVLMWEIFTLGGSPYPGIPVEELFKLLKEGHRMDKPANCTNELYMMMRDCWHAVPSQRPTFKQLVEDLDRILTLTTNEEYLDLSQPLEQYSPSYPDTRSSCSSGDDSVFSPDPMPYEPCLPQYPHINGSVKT
Test: Inhibition of recombinant human His-tagged cytoplasmic FGFR2 expressed in baculovirus expression system by Z'-LYTE assay
Conditions: not given

First: Cn1cc(-c2cnc3c(-c4csc(C(=O)NCC(F)(F)F)c4)cnn3c2)cn1
Second: Cc1sc(C(=O)N[C@@H]2[C@H](N)CCCC2(F)F)cc1-c1cnn2cc(Cl)cnc12
The IC50 of the first is 100-fold lower: 170 nM for the first, 17000 nM for the second.

Molecular target: CDK9/cyclin T1 (Homo sapiens, UniProt P50750)
Test: Inhibition of full-length recombinant human His-tagged CDK9/cyclin T1 expressed in baculovirus expression system by Adapta assay
Conditions: not given

First: Cn1cc(-c2cnc3c(-c4csc(C(=O)NCC(F)(F)F)c4)cnn3c2)cn1
Second: Cc1sc(C(=O)N[C@@H]2[C@H](N)CCCC2(F)F)cc1-c1cnn2cc(Cl)cnc12
The IC50 of the first is 6.9-fold lower: 35 nM for the first, 240 nM for the second.
